The compounds below were run against T1, human TLR9 (Homo sapiens, UniProt Q9NR96) (assay: HEK293-Blue-hTLR-9 cells assay (SEAP reporter, ODN2006 stimulation)). Details: HEK293-Blue-hTLR9 cells, ODN2006, 20 hrs.
T1 construct: host or cells: HEK293 (HEK-Blue hTLR9)
T1 sequence (Q9NR96 26-1032): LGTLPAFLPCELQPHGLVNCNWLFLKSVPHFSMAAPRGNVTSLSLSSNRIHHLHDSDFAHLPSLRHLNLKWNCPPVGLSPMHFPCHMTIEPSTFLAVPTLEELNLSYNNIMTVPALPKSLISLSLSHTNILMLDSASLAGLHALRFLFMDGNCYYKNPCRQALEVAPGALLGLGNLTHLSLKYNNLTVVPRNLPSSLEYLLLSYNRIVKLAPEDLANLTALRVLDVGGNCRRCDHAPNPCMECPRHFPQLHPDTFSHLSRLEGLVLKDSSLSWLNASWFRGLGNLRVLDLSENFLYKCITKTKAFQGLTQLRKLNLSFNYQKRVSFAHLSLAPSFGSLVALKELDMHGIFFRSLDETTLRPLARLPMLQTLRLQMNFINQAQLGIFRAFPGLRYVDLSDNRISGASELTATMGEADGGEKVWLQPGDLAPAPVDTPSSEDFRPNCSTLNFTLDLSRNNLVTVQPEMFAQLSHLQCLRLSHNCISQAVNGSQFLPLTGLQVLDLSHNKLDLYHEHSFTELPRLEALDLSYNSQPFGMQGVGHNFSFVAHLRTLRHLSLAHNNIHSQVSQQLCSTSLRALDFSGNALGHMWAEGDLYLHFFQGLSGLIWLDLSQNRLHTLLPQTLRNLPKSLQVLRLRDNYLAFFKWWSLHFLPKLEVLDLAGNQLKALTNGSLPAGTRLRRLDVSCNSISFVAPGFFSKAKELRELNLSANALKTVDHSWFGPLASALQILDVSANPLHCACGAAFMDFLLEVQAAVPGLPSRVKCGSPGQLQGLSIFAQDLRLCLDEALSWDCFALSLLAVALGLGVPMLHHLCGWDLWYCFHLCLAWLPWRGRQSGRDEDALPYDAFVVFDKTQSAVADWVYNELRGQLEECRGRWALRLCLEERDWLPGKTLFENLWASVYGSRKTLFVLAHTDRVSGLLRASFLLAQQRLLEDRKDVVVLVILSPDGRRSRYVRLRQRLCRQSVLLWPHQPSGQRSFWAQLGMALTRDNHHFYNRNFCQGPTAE
Format: cell-based
Description: The following tests were carried out in order to determine the activity of the compounds of formula (I) in HEK293-Blue-hTLR-7/8/9 cells assay.
HEK293-Blue-hTLR-9 Cells Assay:
A stable HEK293-Blue-hTLR-9 cell line was purchased from InvivoGen (Cat. #. hkb-htlr9, San Diego, Calif., USA). These cells were originally designed for studying the stimulation of human TLR9 by monitoring the activation of NF-κB. A SEAP (secreted embryonic alkaline phosphatase) reporter gene was placed under the control of the […] minimal promoter fused to five NF-κB and AP-1-binding sites. The SEAP was induced by activating NF-κB and AP-1 via stimulating HEK-Blue hTLR9 cells with TLR9 ligands. Therefore the reporter expression was declined by TLR9 antagonist under the stimulation of a ligand, such as ODN2006 (Cat. #: tlrl-2006-1, Invivogen, San Diego, Calif., USA), for incubation of 20 hrs. The cell culture supernatant SEAP reporter activity was determined using QUANTI-Blue™ kit (Cat. #: rep-qbl, Invivogen, San Diego, Calif., USA) at a wavelength of 640 nm, a detection medium that turns purple or blue in the presence of alkaline phosphatase.
HEK293-Blue-hTLR9 cells were incubated at a density of […] cells/mL in a volume of 170 μL, in a 96-well plate in Dulbecco's Modified Eagle's medium (DMEM) containing 4.5 g/L glucose, 50 U/mL penicillin, […], […], 2 mM L-glutamine, 10% (v/v) heat-inactivated fetal bovine serum with addition of 20 μL test compound in a serial dilution in the presence of final DMSO at 1% and 10 μL of 20 uM ODN2006 in above DMEM, perform incubation under 37° C. in a CO2 incubator for 20 hrs. Then 20 μL of the supernatant from each well was incubated with 180 μL Quanti-blue substrate solution at 37° C. for 2 hrs and the absorbance was read at 620˜655 nm using a spectrophotometer. The signalling pathway that TLR9 activation leads to downstream NF-κB activation has been widely accepted, and therefore similar reporter assay was modified for evaluating TLR9 antagonist.

Structure (SMILES) | IC50 [µM]
C[C@@H]1CN(c2ccc(C(F)(F)F)c3ncccc23)C[C@H](C(=O)N[C@@H]2CNC[C@@H]2F)O1 (single isomer, unassigned) [Example 2A] | 41
C[C@@H]1CN(c2ccc(C(F)(F)F)c3ncccc23)C[C@H](C(=O)N[C@H]2CNC[C@H]2F)O1 (single isomer, unassigned) [Example 2B] | 34.6
C[C@@H]1CN(c2ccc(C(F)(F)F)c3ncccc23)C[C@H](C(=O)NC2CC3CCCC(C2)N3)O1 (single isomer, unassigned) [Example 34A] | 8.5
C[C@@H]1CN(c2ccc(C(F)(F)F)c3ncccc23)C[C@H](C(=O)NC2C3CNCC2COC3)O1 (single isomer, unassigned) [Example 46A] | 23
C[C@@H]1CN(c2ccc(C(F)(F)F)c3ncccc23)C[C@H](C(=O)NC2C3CNCC2COC3)O1 (single isomer, unassigned) [Example 46B] | 15.3
C[C@@H]1CN(c2ccc(C(F)(F)F)c3ncccc23)C[C@H](C(=O)NC2CC3CCC(C2)N3)O1 (single isomer, unassigned) [Example 47A] | 10.1
C[C@@H]1CN(c2ccc(C(F)(F)F)c3ncccc23)C[C@H](C(=O)NC2CC3CCC(C2)N3)O1 (single isomer, unassigned) [Example 47B] | 10.5
C[C@H]1C[C@@H](N)CN(c2ccc(C(F)(F)F)c3ncccc23)C1 [Example 1, (3R,5S)-5-methyl-1-[8-(trifluoromethyl)-5-quinolyl]piperidin-3-amine] | 9.7
C[C@@H]1CN(c2ccc(C(F)(F)F)c3ncccc23)C[C@H](C(=O)NC2CNC[C@@H]2F)O1 (stereo partly drawn) [Example 2, cis-(2R,6R)-N-(4-fluoropyrrolidin-3-yl)-6-methyl-4-[8-(trifluoromethyl)-5-quinolyl]morpholine-2-carboxamide] | 51.8
C[C@@H]1CN(c2ccc(C(F)(F)F)c3ncccc23)C[C@H](C(=O)N2CC(N)C2)O1 [Example 7, (3-aminoazetidin-1-yl)-[(2R,6R)-6-methyl-4-[8-(trifluoromethyl)-5-quinolyl]morpholin-2-yl]methanone] | 68.5
C[C@@H]1CN(c2ccc([N+](=O)[O-])c3ncccc23)C[C@H](C(=O)N[C@@H]2CNC[C@@H]2F)O1 [Example 19, cis-(2R,6R)-N-[41-fluoropyrrolidin-3-yl]-6-methyl-4-(8-nitro-5-quinolyl)morpholine-2-carboxamide] | 50.7
Cc1ccc(N2C[C@@H](C)O[C@@H](C(=O)N[C@@H]3CNC[C@@H]3F)C2)c2cccnc12 [Example 21, cis-(2R,6R)-N-14-fluoropyrrolidin-3-yl1-6-methyl-4-(8-methyl-5-quinolyl)morpholine-2carboxamide] | 38
C[C@@H]1CN(c2ccc(Cl)c3ncccc23)C[C@H](C(=O)N[C@H]2CNC[C@H]2F)O1 [Example 22, (2R,6R)-4-(8-chloro-5-quinolyl)-N-[(3S,4R)-4-fluoropyrrolidin-3-yl]-6-methyl-morpholine-2-carboxamide] | 37
C[C@@H]1CN(c2ccc(C(F)(F)F)c3ncccc23)C[C@H](C(=O)NCC2CNCC2(F)F)O1 (stereo partly drawn) [Example 29, (2R,6R)-N-[(4,4-difluoropyrrolidin-3-yl)methyl]-6-methyl-4-[8-(trifluoromethyl)-5-quinolyl]morpholine-2-carboxamide] | > 100
C[C@@H]1CN(c2ccc(C(F)(F)F)c3ncccc23)C[C@H](C(=O)NC2CC3COCC(C2)N3)O1 (stereo partly drawn) [Example 33, (2R,6R)-6-methyl-N-(3-oxa-9-azabicyclo[3.3.1]nonan-7-yl)-4-[8-(trifluoromethyl)-5-quinolyl]morpholine-2-carboxamide] | 23.6
C[C@@H]1CN(c2ccc(I)c3ncccc23)C[C@H](C(=O)NC2CNCC2F)O1 (stereo partly drawn) [Example 40, cis-(2R,6R)-N-[4-fluoropyrrolidin-3-yl]-4-(8-iodo-5-quinolyl)-6-methyl-morpholine-2-carboxamide] | 22.4
C[C@@H]1CN(c2ccc(Br)c3ncccc23)C[C@H](C(=O)NC2CNCC2F)O1 (stereo partly drawn) [Example 41, cis-(2R,6R)-4-(8-bromo-5-quinolyl)-N-[4-fluoropyrrolidin-3-yl]-6-methyl-morpholine-2-carboxamide] | 23.2
C#Cc1ccc(N2C[C@@H](C)O[C@@H](C(=O)NC3CCN(C)CC3)C2)c2cccnc12 [Example 43, (2R,6R)-4-(8-ethynyl-5-quinolyl)-6-methyl-N-(1-methyl-4-piperidyl)morpholine-2-carboxamide] | 12.3
C[C@@H]1CN(c2ccc(C(F)(F)F)c3ncccc23)C[C@H](C(=O)NC2C[C@H]3C[C@@H]2CN3)O1 (some centres unmarked) [Example 44] | 15.7
C[C@@H]1CN(c2ccc(C(F)(F)F)c3ncccc23)C[C@H](C(=O)NC2C3CCCC2CNC3)O1 (stereo partly drawn) [Example 45, (2R,6R)-N-(3-azabicyclo[3.3.1]nonan-9-yl)-6-methyl-4-[8-(trifluoromethyl)-5-quinolyl]morpholine-2-carboxamide] | 11.6
C[C@@H]1CN(c2ccc(C(F)(F)F)c3ncccc23)C[C@H](C(=O)NCC2CNCCO2)O1 (stereo partly drawn) [Example 48, (2R,6R)-6-methyl-N-(morpholin-2-ylmethyl)-4-[8-(trifluoromethyl)-5-quinolyl]morpholine-2-carboxamide] | 11.7

The compounds below were run against T2, CYP2C9 (Homo sapiens, UniProt P11712) (assay: CYP inhibition assay in human liver microsome, CYP2C9). Details: HLM, diclofenac substrate, 10 µM.
T2 construct: tissue BD-Gentest 452117; host or cells: human liver microsomes
Format: in vitro ADME
Description: This is a high throughput screening assay used for assessment of reversible inhibition of CYP2C9, CYP2D6, and CYP3A4 activity of test compounds in human liver microsome (HLM) in early discovery stage.
10 mM DMSO stock solutions of test compounds were diluted in DMSO to generate 2 mM intermediate stock solution. 250 nL of intermediate stock solution were transferred in duplicate into 3 separate 384 well microtitre plates (assay-ready plates). A mixture of HLM and each substrate was made up. 45 μL of HLM substrate mix was then transferred to each well of an assay ready plate and mixed. The negative (solvent) and positive controls (standard inhibitor for each CYP) were included in each assay ready plate. The assay ready plate was warmed to 37° C. in an incubator over 10 minutes. 5 μL pre-warmed NADPH regenerating system was added to each incubation well to start the reaction. Final incubation volume was 50 μL. The assay plate then was placed back in the 37° C. incubator. After 5 minutes incubation (10 minutes for CYP2D6), incubates were quenched by addition of 50 μL quench reagent containing internal standards (400 ng/mL 13C6-4′-OH-Diclofenac, 20 ng/mL D3-Dextrorphan and 20 ng/mL D4-1′OH-Midazolam in acetonitrile). The supernatants were collected for RapidFire/MS/MS analysis.
RapidFire online solid phase extraction/sample injection system (Agilent) coupled with API4000 triple quadrupole mass spectrometer (AB Sciex) were used for sample analysis. The mobile phase composed of acetonitrile and water supplemented with 0.1% formic acid. A C4 solid phase extraction cartridge is used for sample separation. MS detection is achieved in positive ion MRM mode.
Peak areas for substrate, metabolite and internal standard are determined using the
RapidFire integrator software (version 3.6.12009.12296). Peak area ratios (PAR) of metabolite and internal standard (stable-labelled metabolite) are then calculated. The measurement window for each experiment is then defined:
PAR (0% activity)=average PAR for all incubations containing concentrated inhibitor;
Par (100% activity)=average PAR for all incubations containing no inhibitor (DMSO controls);
% Activity (test inhibitor) =[PAR(test inhibitor)-PAR(0% activity)][PAR(100% activity)-PAR(0% activity)];
% Inhibition (test inhibitor)=100-% Activity (test inhibitor).
Percentage inhibition data are then reported, in duplicate, for the 3 CYP enzymes.

T2 sequence (P11712 whole entry): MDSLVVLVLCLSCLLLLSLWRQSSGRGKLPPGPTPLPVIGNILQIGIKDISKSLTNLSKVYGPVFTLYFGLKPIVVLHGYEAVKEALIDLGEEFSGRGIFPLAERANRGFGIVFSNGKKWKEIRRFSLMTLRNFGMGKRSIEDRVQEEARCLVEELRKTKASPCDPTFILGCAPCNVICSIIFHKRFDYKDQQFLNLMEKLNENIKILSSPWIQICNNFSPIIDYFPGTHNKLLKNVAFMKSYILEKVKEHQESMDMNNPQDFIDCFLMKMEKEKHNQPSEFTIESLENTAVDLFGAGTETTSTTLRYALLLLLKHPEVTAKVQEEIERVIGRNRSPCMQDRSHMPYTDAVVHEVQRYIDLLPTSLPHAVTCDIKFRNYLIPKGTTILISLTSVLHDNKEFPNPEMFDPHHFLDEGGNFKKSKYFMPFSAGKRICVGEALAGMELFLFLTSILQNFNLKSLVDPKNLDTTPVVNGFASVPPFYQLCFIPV

Structure (SMILES) | CYP inhibition % @10 uM (2C9) [%]
C[C@@H]1CN(c2ccc(C(F)(F)F)c3ncccc23)C[C@H](C(=O)NC2CC3CCCC(C2)N3)O1 (single isomer, unassigned) [Example 34A] | −6

Same assay, conditions: human, liver microsomes, probe diclofenac, HLM, diclofenac substrate, read-out: CYP inhibition % @10 uM (2C9)

Structure (SMILES) | inhibition at 5 min, 10 µM [%]
C[C@@H]1CN(c2ccc(C(F)(F)F)c3ncccc23)C[C@H](C(=O)N[C@@H]2CNC[C@@H]2F)O1 (single isomer, unassigned) [Example 2A] | 26
